This is an account of results in patent publication US20240182481A1 (Tango Therapeutics, Inc., priority 2021, published 2024).

Where two headings read alike, the source gives them in different places.

One assay addresses USP1-UAF1 (Homo sapiens, UniProt O94782). In words: Ubiquitin Rhodamine assay for USP1-UAF1 activity. The format is biochemical. As for the experimental part: Certain compounds of the disclosure were assessed for USP1-UAF1 activity in a Ubiquitin Rhodamine assay as described in Example 135.
The test system of assay [1] is MDA-MB-436 (BRCA1 mutant) cell line. In words: Viability assay in BRCA1 mutant cell line MDA-MB-436. It is filed as cell-based. The settings on record: BRCA1 mutant MDA-MB-436, read-out: MDA-MB-436 rel IC50. The source says:
(§1) Table 1 also indicates IC50 values in a viability assay for a non-isogenic pair of BRCA1 mutant (column 5—MDA-MB-436) and BRCA1 WT (column 6—HCC1954) cell lines. These values indicate the effect of treatment with compound on cell survival.

Assay [2] concerns HCC1954 (BRCA1 WT) cell line. In words: Viability assay in BRCA1 WT cell line HCC1954. The format is cell-based. The settings on record: read-out: HCC 1954 IC50 rel IC50.
Excerpt: as §1

In the next assay the test system is monoubiquitinated PCNA. In words: AlphaLISA assay measuring monoubiquitinated PCNA in MDA-MB-436. The format is cell-based. The following applies: read-out: Alpha LISA IC50. The source says:
Table 1 also indicates IC50 values for exemplary compounds in an AlphaLISA assay measuring monoubiquitinated PCNA in a BRCA1 mutant cell line (MDA-MB-436; column 7).
For orientation: Alpha assays give light when donor and acceptor beads are brought close together.

The mark [3] stands for this setting: Homo sapiens, MDA-MB-436, viability.

Sequence of USP1-UAF1 (O94782 whole entry): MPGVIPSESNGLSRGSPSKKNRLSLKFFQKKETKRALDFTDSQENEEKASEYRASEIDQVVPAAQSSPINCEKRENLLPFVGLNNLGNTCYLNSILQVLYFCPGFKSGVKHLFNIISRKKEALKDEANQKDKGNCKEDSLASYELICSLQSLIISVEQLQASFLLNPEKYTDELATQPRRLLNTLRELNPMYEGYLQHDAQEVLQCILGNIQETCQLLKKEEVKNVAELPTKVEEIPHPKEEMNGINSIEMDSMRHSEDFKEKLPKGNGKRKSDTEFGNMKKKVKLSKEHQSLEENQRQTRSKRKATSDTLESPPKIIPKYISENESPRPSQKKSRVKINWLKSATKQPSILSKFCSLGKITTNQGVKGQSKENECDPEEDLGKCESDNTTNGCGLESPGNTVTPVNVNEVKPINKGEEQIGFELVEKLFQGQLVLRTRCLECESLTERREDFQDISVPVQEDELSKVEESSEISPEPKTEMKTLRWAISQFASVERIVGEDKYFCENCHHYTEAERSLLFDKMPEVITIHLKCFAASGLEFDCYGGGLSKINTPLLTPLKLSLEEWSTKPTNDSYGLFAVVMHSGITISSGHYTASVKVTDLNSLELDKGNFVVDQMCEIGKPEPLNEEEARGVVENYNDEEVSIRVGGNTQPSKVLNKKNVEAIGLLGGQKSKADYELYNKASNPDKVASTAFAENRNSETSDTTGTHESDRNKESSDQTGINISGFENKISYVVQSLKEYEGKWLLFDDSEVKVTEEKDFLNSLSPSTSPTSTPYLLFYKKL
Sequence of USP1-UAF1 (Q8TAF3 whole entry partner): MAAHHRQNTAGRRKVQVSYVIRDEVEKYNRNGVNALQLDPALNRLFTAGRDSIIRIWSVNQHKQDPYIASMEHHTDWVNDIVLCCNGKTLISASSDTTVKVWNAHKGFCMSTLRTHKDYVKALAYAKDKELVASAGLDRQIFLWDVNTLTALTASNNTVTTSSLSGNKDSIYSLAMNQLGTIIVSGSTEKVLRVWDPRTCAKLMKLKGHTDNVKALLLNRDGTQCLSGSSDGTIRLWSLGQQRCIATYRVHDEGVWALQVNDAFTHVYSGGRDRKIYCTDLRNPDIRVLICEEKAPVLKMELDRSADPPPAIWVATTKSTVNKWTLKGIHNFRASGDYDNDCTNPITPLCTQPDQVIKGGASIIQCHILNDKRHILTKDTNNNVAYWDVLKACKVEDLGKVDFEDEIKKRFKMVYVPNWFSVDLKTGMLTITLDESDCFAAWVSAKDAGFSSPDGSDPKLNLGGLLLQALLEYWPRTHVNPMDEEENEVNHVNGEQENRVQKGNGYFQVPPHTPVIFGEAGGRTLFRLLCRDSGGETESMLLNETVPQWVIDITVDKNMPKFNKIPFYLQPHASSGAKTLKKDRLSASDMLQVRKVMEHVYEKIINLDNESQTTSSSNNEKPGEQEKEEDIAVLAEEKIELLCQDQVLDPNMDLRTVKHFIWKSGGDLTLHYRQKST

By IC50 is commonly meant the concentration that inhibits the measured activity by half. As for `COc1ncnc(C2CC2)c1-c1ncc2[nH]nc(Cc3ccc(-c4nc(C#N)cn4C)cc3)c2n1` [Compound 45, 2-[4-[[5-(4-cyclopropyl-6-methoxy-pyrimidin-5-yl)-1H-pyrazolo[4,3-d]pyrimidin-3-yl]methyl]phenyl]-1-methyl-imidazole-4-carbonitrile], the IC50 at USP1-UAF1 is 100 to 10000 nM; in assay [1] (setting [3]), 250 to 10000 nM; in assay [2] (Homo sapiens) it was at least 10000 nM; in the assay with monoubiquitinated PCNA (Homo sapiens), 250 to 10000 nM.

Take `COc1ncnc(C2CC2(F)F)c1-c1ncc2[nH]nc(Cc3ccc(-c4nc(C(F)(F)F)cn4C)cc3)c2n1` (centres unmarked) [Compound 172, 5-[4-(2,2-difluorocyclopropyl)-6-methoxy-pyrimidin-5-yl]-3-[[4-[1-methyl-4-(trifluoromethyl)imidazol-2-yl]phenyl]methyl]-1H-pyrazolo[4,3-d]pyrimidine]: the IC50 is below 30 nM against USP1-UAF1, below 100 nM in assay [1] (setting [3]), at least 10000 nM in assay [2] (Homo sapiens) and below 100 nM in the assay with monoubiquitinated PCNA (Homo sapiens).

Take `CCOc1cc(C(F)(F)F)nn1-c1ccc(Cc2n[nH]c3cnc(-c4c(OC)ncnc4C4CC4)nc23)cc1` [Compound 123, 5-(4-cyclopropyl-6-methoxy-pyrimidin-5-yl)-3-[[4-[5-ethoxy-3-(trifluoromethyl)pyrazol-1-yl]phenyl]methyl]-1H-pyrazolo[4,3-d]pyrimidine]: the IC50 is below 30 nM against USP1-UAF1, below 100 nM in assay [1] (setting [3]), 250 to 10000 nM in assay [2] (Homo sapiens) and below 100 nM with monoubiquitinated PCNA (Homo sapiens).

For the compound `COCCc1[nH]c2cnc(-c3c(OC)ncnc3C3CC3)nc2c1Cc1ccc(-c2nc(C(F)(F)F)cn2C)cc1` [Compound 195, 2-(4-cyclopropyl-6-methoxy-pyrimidin-5-yl)-6-(2-methoxyethyl)-7-[[4-[-methyl-4-(trifluoromethyl)imidazol-2-yl]phenyl]methyl]-5H-pyrrolo[3,2-d]pyrimidine], the IC50 on USP1-UAF1 is below 30 nM; in assay [1] (setting [3]), below 100 nM; in assay [2] (Homo sapiens) it was at least 10000 nM; with monoubiquitinated PCNA (Homo sapiens), below 100 nM.

Turning to `COc1ncnc(C2CC2)c1-c1ncc2[nH]nc(Cc3ccc(-c4nc(C(F)(F)F)cn4C4CC4)cc3)c2n1` [Compound 206], the IC50 against USP1-UAF1 was below 30 nM; in assay [1] (setting [3]) it was below 100 nM; in assay [2] (Homo sapiens), 250 to 10000 nM; with monoubiquitinated PCNA (Homo sapiens), below 100 nM.

On to `COc1ncnc(C2CC2)c1-c1ncc2[nH]c(C)c(C(O)c3ccc(-c4nc(C(F)(F)F)cn4C)cc3)c2n1` (centres unmarked) [Compound 207, [2-(4-cyclopropyl-6-methoxy-pyrimidin-5-yl)-6-methyl-5H-pyrrolo[3,2-d]pyrimidin-7-yl]-[4-[1-methyl-4-(trifluoromethyl)imidazol-2-yl]phenyl]methanol], for which the IC50 is 100 to 10000 nM on USP1-UAF1, 250 to 10000 nM in assay [1] (setting [3]), at least 10000 nM in assay [2] (Homo sapiens) and 250 to 10000 nM in the assay on monoubiquitinated PCNA (Homo sapiens).

On to `CCn1cc(C(F)(F)F)nc1-c1ccc(Cc2c[nH]c3cnc(-c4c(OC)ncnc4C4CC4)nc23)cc1` [Compound 15], for which the IC50 on USP1-UAF1 is below 30 nM; in assay [1] (setting [3]) it was below 100 nM; in assay [2] (Homo sapiens), at least 10000 nM; with monoubiquitinated PCNA (Homo sapiens) it was 100 to 250 nM.

For the compound `Cn1cc(C(F)(F)F)nc1-c1ccc(Nc2c[nH]c3cnc(-c4ccccc4C4CC4)nc23)cc1` [Compound 12, 2-(2-cyclopropylphenyl)-N-[4-[1-methyl-4-(trifluoromethyl)imidazol-2-yl]phenyl]-5H-pyrrolo[3,2-d]pyrimidin-7-amine], the IC50 against USP1-UAF1 is 100 to 10000 nM; in assay [1] (setting [3]) it was 250 to 10000 nM; in assay [2] (Homo sapiens), 250 to 10000 nM; in the assay on monoubiquitinated PCNA (Homo sapiens), 250 to 10000 nM.

Consider `COc1ncnc(C2CC2)c1-c1ncc2[nH]cc([C@@H](c3ccc(-c4nc(C(F)(F)F)cn4C)cc3)C(C)C)c2n1` (single isomer, unassigned) [Compound 151], for which the IC50 on USP1-UAF1 was 30 to 100 nM; in assay [1] (setting [3]), 100 to 250 nM; in assay [2] (Homo sapiens), 250 to 10000 nM; with monoubiquitinated PCNA (Homo sapiens) it was below 100 nM.

As to `COC(c1ccc(-c2nc(C(F)(F)F)cn2C)cc1)c1c[nH]c2cnc(-c3ccccc3C(C)C)nc12` (centres unmarked) [Compound 73, 2-(2-isopropylphenyl)-7-[methoxy-[4-[1-methyl-4-(trifluoromethyl)imidazol-2-yl]phenyl]methyl]-5H-pyrrolo[3,2-d]pyrimidine], the IC50 against USP1-UAF1 lay within 100 to 10000 nM; in assay [1] (setting [3]), 250 to 10000 nM; in assay [2] (Homo sapiens), 250 to 10000 nM; with monoubiquitinated PCNA (Homo sapiens), 100 to 250 nM.

Consider `CC(C)c1ccccc1-c1ncc2[nH]cc(Oc3ccc(-c4nc(C(F)(F)F)cn4C)cc3)c2n1` [Compound 2, 2-(2-isopropylphenyl)-7-[4-[1-methyl-4-(trifluoromethyl)imidazol-2-yl]phenoxy]-5H-pyrrolo[3,2-d]pyrimidine], for which the IC50 against USP1-UAF1 was 30 to 100 nM; in assay [1] (setting [3]), 100 to 250 nM; in assay [2] (Homo sapiens) it was at least 10000 nM; with monoubiquitinated PCNA (Homo sapiens), below 100 nM.

Take `COc1ncnc(OC)c1-c1ncc2[nH]cc(Cc3ccc(-c4nc(C(F)(F)F)cn4C)cc3)c2n1` [Compound 100]: the IC50 against USP1-UAF1 was 30 to 100 nM; in assay [1] (setting [3]), 100 to 250 nM; in assay [2] (Homo sapiens), at least 10000 nM; in the assay with monoubiquitinated PCNA (Homo sapiens) it was below 100 nM.

Consider `Cn1cc(C(F)(F)F)nc1-c1ccc(C(O)c2c[nH]c3cnc(-c4c(OC(F)F)ncnc4C4CC4)nc23)cc1` (single isomer, unassigned) [Compound 141], for which the IC50 was below 30 nM on USP1-UAF1, below 100 nM in assay [1] (viability), at least 10000 nM in assay [2] and below 100 nM in the assay on monoubiquitinated PCNA.

Take `COc1ncnc(C(C)C)c1-c1ncc2[nH]cc(Cc3ccc(-c4nc(C(F)(F)F)cn4C)cc3)c2n1` [Compound 105, 2-(4-isopropyl-6-methoxy-pyrimidin-5-yl)-7-[[4-[1-methyl-4-(trifluoromethyl)imidazol-2-yl]phenyl]methyl]-5H-pyrrolo[3,2-d]pyrimidine]: the IC50 was below 30 nM at USP1-UAF1, below 100 nM in assay [1] (setting [3]), at least 10000 nM in assay [2] (Homo sapiens) and below 100 nM in the assay on monoubiquitinated PCNA (Homo sapiens).

Take `COc1ncnc(C2CC2)c1-c1ncc2[nH]cc(C(C)c3ccc(-c4nc(C(F)(F)F)cn4C)cc3)c2n1` (single isomer, unassigned) [Compound 89]: the IC50 is below 30 nM at USP1-UAF1, below 100 nM in assay [1] (setting [3]), 250 to 10000 nM in assay [2] (Homo sapiens) and below 100 nM with monoubiquitinated PCNA (Homo sapiens).

On to `COCCn1cc(Cc2ccc(-c3nc(C(F)(F)F)cn3C)cc2)c2nc(-c3c(OC)ncnc3C3CC3)ncc21` [Compound 200, 2-(4-cyclopropyl-6-methoxy-pyrimidin-5-yl)-5-(2-methoxyethyl)-7-[[4-[1-methyl-4-(trifluoromethyl)imidazol-2-yl]phenyl]methyl]pyrrolo[3,2-d]pyrimidine], for which the IC50 is 30 to 100 nM at USP1-UAF1, below 100 nM in assay [1] (setting [3]), at least 10000 nM in assay [2] (Homo sapiens) and below 100 nM in the assay on monoubiquitinated PCNA (Homo sapiens).

For the compound `COc1ncnc(C2CC2(F)F)c1-c1ncc2[nH]cc(Cc3ccc(-c4nc(C(F)(F)F)cn4C)cc3)c2n1` (centres unmarked) [Compound 147, 2-[4-(2,2-difluorocyclopropyl)-6-methoxy-pyrimidin-5-yl]-7-[[4-[1-methyl-4-(trifluoromethyl)imidazol-2-yl]phenyl]methyl]-5H-pyrrolo[3,2-d]pyrimidine], the IC50 on USP1-UAF1 was below 30 nM; in assay [1] (setting [3]) it was below 100 nM; in assay [2] (Homo sapiens) it was at least 10000 nM; with monoubiquitinated PCNA (Homo sapiens), below 100 nM.
